Data: patent US11149054B2, “Oxysterols and methods of use thereof” (Sage Therapeutics, Inc., priority 2016, dated 2021)
Like-named read-outs stand apart in the source and are kept apart here.

Tests used:
[1] = target: GlunN1/GluN2A glutamate receptors (Homo sapiens (Human), UniProt Q05586+Q12879); assay: Whole-cell patch clamp of mammalian cells (Ionworks Barracuda), positive allosteric modulation, GluN1/GluN2A; assay type: cell-based
Method: (§1) The measurements were performed using Ion Works Barracuda platform following this procedure:
(§2) Electrophysiological Procedures:
(§3) • a) Intracellular solution (mM): 50 mM CsCl, 90 mM CsF, 2 mM MgCl2, 5 mM EGTA, 10 mM HEPES. Adjust to pH 7.2 with CsOH. • b) Extracellular solution, HB-PS (composition in mM): NaCl, 137; KCl, 1.0; CaCl2), 5; HEPES, 10; Glucose, 10; pH adjusted to 7.4 with NaOH (refrigerated until use). • c) Holding potential: −70 mV, potential during agonist/PAM application: −40 mV. Recording Procedure: • a) Extracellular buffer will be loaded into the PPC plate wells (11 μL per well). Cell suspension will be pipetted into the wells (9 μL per well) of the PPC planar electrode. • b) Whole-cell recording configuration will be established via patch perforation with membrane currents recorded by on-board patch clamp amplifiers. • c) Two recordings (scans) will be performed. First, during pre-application of test article alone (duration of pre-application—[…]) and second, during test articles and agonist (EC20 L-glutamate and 30 μM glycine) co-application to detect positive modulatory effects of the test article. […] Potentiating Effect of Positive Allosteric Modulators (PAM) on the Channel
(§4) PAM concentration-response data will be fitted to an equation of the form: % Activation=% L-glutamate EC20+{(% MAX−% L-glutamate EC20)/[1+([Test]/EC50)^N]}, where [Test] will be the concentration of PAM (test article), EC50 will be the concentration of PAM producing half-maximal activation, N will be the Hill coefficient, % L-glutamate EC20 will be the percentage of the current Elicited with L-glutamate EC20, % MAX is the percentage of the current activated with the highest dose of PAM co-admitted with L-glutamate EC20 and % Activation will be the percentage of the current elicited with L-glutamate EC10-30 at each PAM concentration. The maximal amplitude of the evoked currents are measured and defined as Peak Current Amplitude (PCA).

[2] = target: GluN2B glutamate receptors (Homo sapiens (Human), UniProt Q05586+Q13224); assay: Whole-cell patch clamp of mammalian cells (Ionworks Barracuda), positive allosteric modulation, GluN2B; assay type: cell-based; conditions: for Emax: read-out: Avg Emax 2B (%)
Method: as §1, §2, §3, §4

[3] = HEK293 cells, % potentiation of current elicited with EC20 L-glutamate and 30 μM glycine, read-out: Avg Emax 2A (%)
[4] = % potentiation of current elicited with EC20 L-glutamate and 30 μM glycine
[5] = HEK293 cells, co-application with EC20 L-glutamate and 30 μM glycine, 8-point concentration-response, read-out: Avg EC50 2A
[6] = co-application with EC20 L-glutamate and 30 μM glycine, 8-point concentration-response, read-out: Avg EC50 2B

GluN2B glutamate receptors, sequence (Q13224 27-1484, other chains not shown): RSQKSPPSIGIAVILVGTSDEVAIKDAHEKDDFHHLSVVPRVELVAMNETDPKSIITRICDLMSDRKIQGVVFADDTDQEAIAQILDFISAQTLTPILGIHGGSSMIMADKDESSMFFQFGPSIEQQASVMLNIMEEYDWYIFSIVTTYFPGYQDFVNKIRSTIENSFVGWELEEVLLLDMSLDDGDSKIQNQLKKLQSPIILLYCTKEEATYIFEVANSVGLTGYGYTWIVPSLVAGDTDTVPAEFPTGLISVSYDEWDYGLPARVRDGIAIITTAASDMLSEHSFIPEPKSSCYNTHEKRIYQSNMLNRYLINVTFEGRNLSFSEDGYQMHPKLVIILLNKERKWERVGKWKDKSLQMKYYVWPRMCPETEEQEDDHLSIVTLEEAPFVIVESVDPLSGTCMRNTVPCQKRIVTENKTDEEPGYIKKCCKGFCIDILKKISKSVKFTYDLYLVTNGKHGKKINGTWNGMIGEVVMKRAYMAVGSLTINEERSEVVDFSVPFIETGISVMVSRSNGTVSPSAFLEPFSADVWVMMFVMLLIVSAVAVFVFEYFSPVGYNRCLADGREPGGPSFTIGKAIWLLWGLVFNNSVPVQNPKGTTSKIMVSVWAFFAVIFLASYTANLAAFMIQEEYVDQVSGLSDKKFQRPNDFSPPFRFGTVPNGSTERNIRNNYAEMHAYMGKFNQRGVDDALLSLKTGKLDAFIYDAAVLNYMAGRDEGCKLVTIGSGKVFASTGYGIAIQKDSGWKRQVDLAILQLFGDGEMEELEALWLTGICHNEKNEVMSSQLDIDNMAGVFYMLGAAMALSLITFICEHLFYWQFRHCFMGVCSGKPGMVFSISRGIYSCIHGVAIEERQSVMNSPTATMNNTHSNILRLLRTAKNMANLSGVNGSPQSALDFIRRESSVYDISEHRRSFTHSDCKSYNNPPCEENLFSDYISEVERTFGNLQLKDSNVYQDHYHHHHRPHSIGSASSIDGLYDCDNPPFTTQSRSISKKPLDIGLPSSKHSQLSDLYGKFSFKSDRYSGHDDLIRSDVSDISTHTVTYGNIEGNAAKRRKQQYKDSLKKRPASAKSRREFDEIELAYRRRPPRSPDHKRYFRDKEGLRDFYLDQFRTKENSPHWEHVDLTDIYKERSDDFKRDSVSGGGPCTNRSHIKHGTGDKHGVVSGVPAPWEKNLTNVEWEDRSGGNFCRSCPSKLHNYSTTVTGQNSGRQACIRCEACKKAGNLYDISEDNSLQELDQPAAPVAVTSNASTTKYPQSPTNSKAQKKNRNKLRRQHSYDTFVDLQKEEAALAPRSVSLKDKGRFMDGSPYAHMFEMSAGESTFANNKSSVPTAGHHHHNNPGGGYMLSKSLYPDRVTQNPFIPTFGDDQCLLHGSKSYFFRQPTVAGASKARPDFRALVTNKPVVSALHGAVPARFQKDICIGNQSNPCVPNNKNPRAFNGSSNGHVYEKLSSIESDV
GlunN1/GluN2A glutamate receptors, sequence (Q12879 23-1464, other chains not shown): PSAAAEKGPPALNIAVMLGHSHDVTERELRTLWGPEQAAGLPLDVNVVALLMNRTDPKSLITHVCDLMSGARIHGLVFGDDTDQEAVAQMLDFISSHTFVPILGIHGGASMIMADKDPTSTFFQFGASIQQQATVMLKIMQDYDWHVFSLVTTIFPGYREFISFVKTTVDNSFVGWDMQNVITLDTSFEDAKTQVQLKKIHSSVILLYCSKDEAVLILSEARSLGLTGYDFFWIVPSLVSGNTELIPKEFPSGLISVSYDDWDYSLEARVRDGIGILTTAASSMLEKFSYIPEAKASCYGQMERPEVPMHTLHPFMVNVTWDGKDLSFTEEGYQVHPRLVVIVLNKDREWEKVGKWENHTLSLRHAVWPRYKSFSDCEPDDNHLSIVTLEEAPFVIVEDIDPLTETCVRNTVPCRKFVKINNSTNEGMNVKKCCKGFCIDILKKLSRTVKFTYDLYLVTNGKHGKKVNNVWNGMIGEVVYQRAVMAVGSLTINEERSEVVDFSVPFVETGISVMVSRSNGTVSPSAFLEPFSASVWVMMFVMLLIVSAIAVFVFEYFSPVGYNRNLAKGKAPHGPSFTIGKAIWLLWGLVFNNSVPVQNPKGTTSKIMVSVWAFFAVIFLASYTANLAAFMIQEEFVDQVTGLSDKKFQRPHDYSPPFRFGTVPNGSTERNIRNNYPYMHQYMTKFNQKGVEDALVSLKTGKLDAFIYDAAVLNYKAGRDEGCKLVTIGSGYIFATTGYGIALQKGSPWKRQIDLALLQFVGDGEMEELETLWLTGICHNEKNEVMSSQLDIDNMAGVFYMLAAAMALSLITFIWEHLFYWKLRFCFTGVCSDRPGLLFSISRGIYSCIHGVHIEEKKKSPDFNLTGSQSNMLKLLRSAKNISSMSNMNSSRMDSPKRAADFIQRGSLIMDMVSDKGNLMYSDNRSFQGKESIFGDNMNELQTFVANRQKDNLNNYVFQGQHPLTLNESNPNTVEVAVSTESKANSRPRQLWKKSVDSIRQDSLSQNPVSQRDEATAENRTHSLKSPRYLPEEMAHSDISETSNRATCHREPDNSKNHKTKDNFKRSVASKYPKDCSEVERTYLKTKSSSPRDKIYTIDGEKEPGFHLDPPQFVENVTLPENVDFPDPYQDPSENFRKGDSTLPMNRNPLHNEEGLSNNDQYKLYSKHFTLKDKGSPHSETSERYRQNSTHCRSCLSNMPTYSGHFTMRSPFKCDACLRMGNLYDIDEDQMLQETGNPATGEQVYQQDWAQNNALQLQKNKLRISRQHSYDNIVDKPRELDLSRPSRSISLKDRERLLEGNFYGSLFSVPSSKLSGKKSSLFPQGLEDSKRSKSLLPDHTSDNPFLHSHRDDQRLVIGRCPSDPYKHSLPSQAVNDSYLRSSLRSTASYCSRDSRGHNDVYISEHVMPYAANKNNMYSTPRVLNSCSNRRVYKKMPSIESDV

SMILES	EC50 [1] [nM]	Emax [1, 3] [%]	EC50 [2] [nM]	Emax [2, 4] [%]	EC50 [1, 5] [nM]	Emax ([1]; HEK293, read-out: Avg Emax 2A (%)) [%]	Emax [2] [%]	EC50 [2, 6] [nM]
CC[C@]1(O)CC[C@@]2(C)C(=CC[C@H]3[C@@H]4CC[C@H]([C@H](C)CC[C@@H](O)c5ccc(C#N)cc5)[C@@]4(C)CC[C@@H]32)C1 (single isomer, unassigned) [Compound 6680]	1370	175	464	123				
CC[C@]1(O)CC[C@@]2(C)C(=CC[C@H]3[C@@H]4CC[C@H]([C@H](C)CC[C@H](O)c5ccc(C#N)cc5)[C@@]4(C)CC[C@@H]32)C1 (single isomer, unassigned) [Compound 6681]	365	172	360	165				
CC[C@]1(O)CC[C@@]2(C)C(=CC[C@H]3[C@@H]4CC[C@H]([C@H](C)CC[C@@H](O)c5cccc(F)c5)[C@@]4(C)CC[C@@H]32)C1 (single isomer, unassigned) [Compound 6895]	174	241	329	354				
CC[C@]1(O)CC[C@@]2(C)C(=CC[C@H]3[C@@H]4CC[C@H]([C@H](C)CC[C@H](O)c5ccccc5F)[C@@]4(C)CC[C@@H]32)C1 (single isomer, unassigned) [Compound 7281]	248		303					
CC[C@]1(O)CC[C@H]2C(=CC[C@@H]3[C@@H]2CC[C@]2(C)[C@@H]([C@H](C)CC[C@@]4(O)CCOC4)CC[C@@H]32)C1 (single isomer, unassigned) [Compound 8602]	1050		434					
C[C@H](CC[C@H](O)C1CCC1)[C@H]1CC[C@H]2[C@@H]3CC[C@H]4C[C@](O)(C(F)(F)F)CC[C@]4(C)[C@H]3CC[C@]12C [7−A]	248	544	187	431				
C[C@H](CC[C@@H](O)C1CCC1)[C@H]1CC[C@H]2[C@@H]3CC[C@H]4C[C@](O)(C(F)(F)F)CC[C@]4(C)[C@H]3CC[C@]12C [7−B]	347	356	306	352				
CC(C)[C@@H](O)CC[C@@H](C)[C@H]1CC[C@H]2[C@@H]3CC[C@H]4C[C@@](C)(O)CC[C@@H]4[C@H]3CC[C@]12C [Compound 1A75]		457		308				
CC(C)[C@H](O)CC[C@@H](C)[C@H]1CC[C@H]2[C@@H]3CC[C@H]4C[C@@](C)(O)CC[C@@H]4[C@H]3CC[C@]12C [Compound 1B75]		279		233				
CC(C)[C@@H](O)CC[C@@H](C)[C@H]1CC[C@H]2[C@@H]3CC[C@H]4C[C@](O)(C(F)(F)F)CC[C@]4(C)[C@H]3CC[C@]12C [Compound 2A]		653	339		158			
CC(C)[C@H](O)CC[C@@H](C)[C@H]1CC[C@H]2[C@@H]3CC[C@H]4C[C@](O)(C(F)(F)F)CC[C@]4(C)[C@H]3CC[C@]12C [Compound 2B]	131	625	143	965				
CC(C)C(O)CC[C@@H](C)[C@H]1CC[C@H]2[C@@H]3CC[C@H]4C[C@](O)(C(F)(F)F)CC[C@]4(C)[C@H]3CC[C@]12C (stereo partly shown) [Compound 2]		709	147	605				
C[C@H](CCC(O)C(C)(C)C)[C@H]1CC[C@H]2[C@@H]3CC[C@H]4C[C@](O)(C(F)(F)F)CC[C@]4(C)[C@H]3CC[C@]12C (stereo partly shown) [Compound 3]	185		338			556	532	
CC[C@]1(O)CC[C@H]2[C@@H](CC[C@@H]3[C@@H]2CC[C@]2(C)[C@@H]([C@H](C)CC[C@H](O)C(C)C)CC[C@@H]32)C1 [Compound 4A77]		382		254	427			285
CC[C@]1(O)CC[C@H]2[C@@H](CC[C@@H]3[C@@H]2CC[C@]2(C)[C@@H]([C@H](C)CC[C@@H](O)C(C)C)CC[C@@H]32)C1 [Compound 4B77]		467		320	467			298
C[C@H](CC[C@](C)(O)C(F)(F)F)[C@H]1CC[C@H]2[C@@H]3CC[C@H]4C[C@](O)(C(F)(F)F)CC[C@]4(C)[C@H]3CC[C@]12C [Compound 4]	201	663	212	463				

SMILES	EC50 [1] [nM]	Emax [1, 3] [%]	EC50 [2] [nM]	Emax [2, 4] [%]	EC50 [1, 5] [nM]	Emax ([1]; HEK293, read-out: Avg Emax 2A (%)) [%]	Emax [2] [%]	EC50 [2, 6] [nM]
C[C@H](CC[C@@H](O)C(F)(F)F)[C@H]1CC[C@H]2[C@@H]3CC[C@H]4C[C@](O)(C(F)(F)F)CC[C@]4(C)[C@H]3CC[C@]12C [Compound 5]	182	619	260	455				
C[C@H](O)CC[C@@H](C)[C@H]1CC[C@H]2[C@@H]3CC[C@H]4C[C@](O)(C(F)(F)F)CC[C@]4(C)[C@H]3CC[C@]12C [Compound 6]	248		733					
C[C@H](CCC(O)C1CCC1)[C@H]1CC[C@H]2[C@@H]3CC[C@H]4C[C@](O)(C(F)(F)F)CC[C@]4(C)[C@H]3CC[C@]12C (stereo partly shown) [Compound 7]		516		484	300			287
C[C@H](CCC1(O)CCC(F)(F)CC1)[C@H]1CC[C@H]2[C@@H]3CC[C@H]4C[C@](O)(C(F)(F)F)CC[C@]4(C)[C@H]3CC[C@]12C [Compound 8]	446		372					
C[C@H](CCC(O)C1CCOCC1)[C@H]1CC[C@H]2[C@@H]3CC[C@H]4C[C@](O)(C(F)(F)F)CC[C@]4(C)[C@H]3CC[C@]12C (stereo partly shown) [Compound 9]	317	181	234	271				
C[C@H](CCC1(O)CCOCC1)[C@H]1CC[C@H]2[C@@H]3CC[C@H]4C[C@](O)(C(F)(F)F)CC[C@]4(C)[C@H]3CC[C@]12C [Compound 11]		151		157				
C[C@H](CCC[C@@H](C)O)[C@H]1CC[C@H]2[C@@H]3CC[C@H]4C[C@](O)(C(F)(F)F)CC[C@]4(C)[C@H]3CC[C@]12C [Compound 112]		92.6		151				
C[C@H](CCC(O)c1ccncc1)[C@H]1CC[C@H]2[C@@H]3CC=C4C[C@@](C)(O)CC[C@]4(C)[C@H]3CC[C@]12C (stereo partly shown) [Compound 154]		18.2			> 10000			
CC(C)C(O)CC[C@@H](C)[C@H]1CC[C@H]2[C@@H]3CC[C@H]4C[C@@](C)(O)CC[C@@H]4[C@H]3CC[C@]12C (stereo partly shown) [Compound 175]	574	367	288	279				
CC[C@]1(O)CC[C@H]2C(=CC[C@@H]3[C@@H]2CC[C@]2(C)[C@@H]([C@H](C)CCCC(C)(C)O)CC[C@@H]32)C1 [Compound 194]		162		192	200			
C[C@H](CCC(O)c1cccnc1)[C@H]1CC[C@H]2[C@@H]3CC=C4C[C@@](C)(O)CC[C@]4(C)[C@H]3CC[C@]12C (stereo partly shown) [Compound 255]		159		132	646			153
C[C@H](CC[C@]1(O)CCOC1)[C@H]1CC[C@H]2[C@@H]3CC=C4C[C@](O)(C(F)(F)F)CC[C@]4(C)[C@H]3CC[C@]12C [Compound 3496]	35.1							
C[C@H](CC[C@]1(O)CC[C@H](C)CC1)[C@H]1CC[C@H]2[C@@H]3CC[C@H]4C[C@](O)(C(F)(F)F)CC[C@]4(C)[C@H]3CC[C@]12C [Compound 3877]			512					
CC[C@]1(O)CC[C@@]2(C)C(=CC[C@H]3[C@@H]4CC[C@H]([C@H](C)CC[C@H](O)c5ccc(F)cc5)[C@@]4(C)CC[C@@H]32)C1 [Compound 7146]			216					
C[C@H](CC[C@@](C)(O)c1ccccc1)[C@H]1CC[C@H]2[C@@H]3CC=C4C[C@@](C)(O)CC[C@]4(C)[C@H]3CC[C@]12C [Compound 7467]			> 10000					
